Here are results for four compounds from patent US20180236089A1, “RADIATION EMITTING PEPTIDE NUCLEIC ACID CONJUGATES AND USES THEREOF FOR DIAGNOSIS, IMAGING, AND TREATMENT OF DISEASES, CONDITIONS AND DISORDERS” (Yissum Research Development Company of the Hebrew …, priority 2015, published 2018).

A short description of series [1]: UV-Vis absorption of BisQ, TO and PNA FIT probes, alone or hybridized to DNA. Type of series: physicochemical. As to conditions: for λmaxabs: UV-Vis spectrum, maximal absorption.
Series [2] has as its system Panc-1 cells. In words: Hybridization and imaging in living cells (confocal microscopy), Panc-1. The format is cell-based, human. Particulars: Panc-1 expressing mutated KRAS, 0.5 μM, 3 hours. The protocol:
(§1) Three cell lines were used: Panc-1, BxPC-3 (human pancreatic carcinoma, epithelial-like), and HT-29 (human colon adenocarcinoma grade II). Cell lines were purchased from the American Type Culture Collection (ATCC, Manassas, Va., USA). Panc-1 and HT-29 expressing mutated and wild type KRAS, respectively, were cultured (37° C., 5% CO2), in DMEM medium and supplemented with 10% fetal calf serum, 2 mM L-glutamine, and 0.1 mg/mL Streptomycin (Beit Haemek Biological Industries, Israel). BxPC-3 cells expressing wild type KRAS were cultured in RPMI 1640 medium supplemented with 10% fetal calf serum, 2 mM L-glutamine, and 0.1 mg/mL Streptomycin.
(§2) Twenty four hours prior to PNA addition, Panc-1, HT-29, and BxPC-3 were plated separately on chamber slides (Ibidi GmbH, Munich, Germany) until reaching 70-80% confluence.
(§3) Before adding the PNAs, the medium was replaced and the cells were incubated (37° C., humidified atmosphere containing 5% CO2) with 0.5 μM of PNA1 and PNA2 in complete medium. Cells were washed with PBS (×3) prior to cell imaging and the intracellular fluorescence was measured after 3 hours by confocal microscopy. Design and synthesis of a new surrogate base (BisQ) with the unique feature of far-red emission. BisQ was introduced into PNAs that targets the mutated kRAS oncogene.

The subject of series [3] is BxPC-3 cells. Nature of the series: Hybridization and imaging in living cells (confocal microscopy), BxPC-3. Type of series: cell-based, human. Particulars: BxPC-3 expressing wild type KRAS, 0.5 μM, 3 hours. The protocol: as §1, §2, §3
In series [4] the test system is HT-29 cells. Nature of the series: Hybridization and imaging in living cells (confocal microscopy), HT-29. The format is cell-based, human. As to conditions: HT-29 expressing wild type KRAS, 0.5 μM, 3 hours. The protocol: as §1, §2, §3

Where “and” joins values, the source holds several entries; their conditions need not be identical. Equal entries are not always repeated. Where no end group is shown, it is not given here. [ ]: non-standard residue; d: D form. BisQ = dye (BisQ) placed in the PNA in place of a base

Regarding `CN1C(=Cc2cc[n+](C)c3ccccc23)Sc2ccccc21` [TO, thiazole orange, reference compound], in series [1], the εmax was 43,000 M^−1cm^−1 and the λmaxabs turned out to be 505 nm.

As for “(D-Lys)4-CCTCGACT[BisQ]CCGCATCC-NH2 (chain 1 [dK][dK][dK][dK]CCTCGACT-BisQ; numbers in words are those of the source; cysteine pairing not given here; also: PNA (peptide nucleic acid), BisQ joins chain 1 and chain 2 within one strand) [PNA2, BisQ paired with T; PNA FIT probe targeting mutated KRAS]”, the intracellular red fluorescence entry in series [2], in series [3] and in series [4] was “red emission solely in Panc-1 cells” throughout. Besides, the εmax in series [1] is listed as 82,219 M^−1cm^−1. Also, the λmaxabs in series [1] is 593 nm.

As to Fmoc-Aeg(Dy)-OH [BisQ], in series [1], the εmax was 41,370 M^−1cm^−1 and the λmaxabs is 591 nm.

“(D-Lys)4-CCTCGA[BisQ]TACCGCATCC-NH2 (chemistry not fully specified) [PNA1, BisQ paired with G; PNA FIT probe targeting mutated KRAS]”: in series [1], the εmax was 83,000 M^−1cm^−1; the λmaxabs is 591 nm and 588 nm.
